Experimental data published in US20260297129A1, “PEPTIDES AS SELECTIVE IL-23 RECEPTOR INHIBITORS” (SANOFI, priority 2023, published 2026).
≈ marks a conversion by molar mass, not a printed value. Read-outs that look alike come from different tables or passages of the source. Numbered stars: 1 amine (or outer) side, 2 acyl side, 3 side chain; on linkers, the order of the positions; unused ones are H or OH. Bridge positions count the residues as written; N and C are the ends. Square brackets hold non-standard residues; d marks the D form. Peptide text beside a SMILES is read from it. * marks the point of attachment. Trp(7-Me) = Cc1cccc2c(C[C@H](N)C(=O)O)c[nH]c12; Sebacoyl = O=C(CCCCCCCCC(=O)[*:2])[*:1]; 2Nal = N[C@@H](Cc1ccc2ccccc2c1)C(=O)O; Suberoyl = O=C(CCCCCCC(=O)[*:2])[*:1]; 3Pal = N[C@@H](Cc1cccnc1)C(=O)O; Thp = NC1(C(=O)O)CCOCC1; Me2NCH2CH2 = CN(C)CC*; Aib = CC(C)(N)C(=O)O; Sar = CNCC(=O)O

Experiments:
[1] = Solubility of peptide compounds in buffer formulations (Table 5); assay type: physicochemical; settings: target 1 mg/ml
Outline: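 Peptide solids, dried from DMSO stock, were taken up at 1 mg/mL in 50 mM HCl pH 1.2, or 50 mM phosphate pH 6.5 or pH 7.4. After 2 h gentle agitation and filtration (0.45 μm), solubility was determined by UHPLC-UV peak area against a DMSO standard of known concentration.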

[2] = Chemical stability (relative purity loss) of peptide compounds in buffer formulations (Table 6); assay type: physicochemical; settings: 2° C. and 37° C.
Outline: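 Compounds at 0.5 mg/mL in 50 mM HCl pH 1.2, 50 mM phosphate pH 6.5 or pH 7.4, each with acetonitrile (3:1), stored 24 hours at 2° C and 37° C. Purity measured by UHPLC-UV before and after. Stability expressed as relative purity loss.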

[3] = Protease stability in simulated gastric fluids (FaSSGF) (Table 7); assay type: in vitro ADME; settings: fassgf with pepsin, 60 min, 37° C., read-out: Remaining percentage of peptide compound, FaSSGF 60 (min)
Outline: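 Peptides at 1 μM final were incubated at 37 °C in simulated gastric fluid with pepsin (320 mg per 100 mL SGF concentrate). Samples were quenched with ethanol (0.1% HCOOH) at 0, 60, 120 and 240 min and analysed by LC-MS/MS. Percent remaining is the peak area relative to T0 (100%).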

[4] = test system: IL-23 induced STAT3 signaling (IL-23 receptor) in HEK-Blue IL-23 cells; test: Inhibition of IL-23 induced STAT3 signaling in HEK-Blue IL-23 cells, SEAP reporter (Table 9); assay type: cell-based; settings: human IL23 0.25 ng/ml, overnight, read-out: Inhibition of IL-23 induced pSTAT3 (IC50 nM)
Outline: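 HEK-Blue IL-23 reporter cells (10,000/well) pre-incubated 60 min at 37 °C with serially diluted peptides, then stimulated overnight with human IL-23 at 0.25 ng/ml final. SEAP in supernatant read by QUANTI-Blue, 45 min room temperature, OD 620–655 nm; dose-response curve fitting.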

[5] = Buffer pH 1.1 (head; method: 50 mM HCl pH 1.2), 2 h agitation, read-out: Solubility, Buffer pH 1.1
[6] = aqueous buffer, 50 mM phosphate buffer pH 6.5, 2 h agitation, read-out: Solubility, Buffer pH 6.5
[7] = aqueous buffer, 50 mM phosphate buffer pH 7.4, 2 h agitation, read-out: Solubility, Buffer pH 7.4
[8] = 50 mM phosphate buffer pH 6.5 + acetonitrile (3:1), read-out: Chemical stability (relative purity loss), Buffer pH 6.5
[9] = 50 mM phosphate buffer pH 7.4 + acetonitrile (3:1), read-out: Chemical stability (relative purity loss), Buffer pH 7.4
[10] = 50 mm hcl + acetonitrile, Buffer pH 1.1 (head; method: 50 mM HCl pH 1.2 + acetonitrile 3:1), read-out: Chemical stability (relative purity loss), Buffer pH 1.1

Structure (SMILES) | solubility at 2 h [1, 5] [µg/mL] | solubility at 2 h [1, 6] [µg/mL] | solubility at 2 h [1, 7] [µg/mL] | degraded at 24 h [2, 8] [%] | degraded at 24 h [2, 9] [%] | degraded at 24 h [2, 10] [%] | remaining at 1 h, 1 µM [3] [%] | IC50 [4] [nM]
Cc1cccc2c(C[C@@H]3NC(=O)CCCCCCCCC(=O)NCCCC[C@@H](C(=O)N[C@@H](CC(N)=O)C(=O)N[C@@H](Cc4cccnc4)C(=O)N(C)CC(N)=O)NC(=O)C(C)(C)NC(=O)[C@H](Cc4ccc5ccccc5c4)NC(=O)[C@H](Cc4ccc(OCCN(C)C)cc4)NC(=O)C4(CCOCC4)NC(=O)[C@H](CCC(N)=O)NC3=O)c[nH]c12 [compound 11] ([Trp(7-Me)]Q[Thp]Y(Me2NCH2CH2)[2Nal][Aib]KN[3Pal][Sar]-NH2; linker N-7 via Sebacoyl) | ≥ 940 | 330 (≈ 204 µM) | 500 (≈ 309 µM) | 0 | 0 | 7.9 | 98 | 0.28
Cc1cccc2c(C[C@@H]3NC(=O)CCCCCCC(=O)NCCCC[C@@H](C(=O)N[C@@H](CC(N)=O)C(=O)N[C@@H](Cc4cccnc4)C(=O)N(C)CC(N)=O)NC(=O)C(C)(C)NC(=O)[C@H](Cc4ccc5ccccc5c4)NC(=O)[C@H](Cc4ccc(OCCN(C)C)cc4)NC(=O)C4(CCOCC4)NC(=O)[C@H](CCC(N)=O)NC3=O)c[nH]c12 [compound 12] ([Trp(7-Me)]Q[Thp]Y(Me2NCH2CH2)[2Nal][Aib]KN[3Pal][Sar]-NH2; linker N-7 via Suberoyl) | ≥ 1050 | ≥ 1100 | ≥ 1150 | 0 | 0 | 12 | 104 | 0.97
